Data on 13 compounds can be found in patent US7267815B2, “Methods and reagents for the enhancement of virus transduction in the bladder epithelium” (priority 2002, dated 2007).

Counter-ions that a name gives are not always drawn. Like-named read-outs stand apart in the source and are kept apart here.

In data set [1] the test system is bladder epithelium. In words: Effect of chemical agent pretreatment on adenovirus-mediated gene transfer and expression (Ad-βgal, X-gal staining). The data set is classed as in vivo, mouse (BALB/c). As to conditions: for effect on transduction (in words): bladder pretreatment followed by Ad-LacZ. As to the method:
152 female BALB/c mice were used this study.
The route of administration of the chemical agent and virus was intravesical.
3. Based on the reagent being tested, bladder pretreatment was performed as follows:
Poloxomer 407 procedure: Washed 2 times with 100 μl each. Retained the 3rd wash for 5 min and gave one additional wash. Performed 3 times PBS wash prior to virus instillation.
Poloxomer 188 procedure: Washed 2 times with 100 μl each. Retained the 3rd wash for 5 minutes and gave one additional wash. Performed 3 times PBS wash prior to virus instillation.
Lipofectamine 2000 procedure: Added 5 μl of stock Lipofectamine (1 mg/ml) to 195 μl of PBS-10% glycerol. Mixed with an equal volume of Ad-βgal virus and incubated for 15 minutes. Administered 100 μl of the mixture intravesically and retained in the bladder for 30 minutes.
Benzyl Alcohol procedure: Washed 2 times with 100 μl each. Retained the 3rd wash for 15 minutes and then gave one additional wash. Performed 3 times PBS wash prior to virus instillation.
Performed 3 times PBS wash prior to virus instillation.
Polidocanol procedure: Washed 2 times with 100 μl each. Retained the 3rd wash for 5 min and then gave one additional wash. Performed 3 times PBS wash prior to virus instillation.
DC-Cho procedure: Washed 2 times with 100 μl each. Retained the 3rd wash for 5 min and then gave one additional wash. Performed 3 times PBS wash prior to virus instillation.
0.4% HPMC 2910 procedure: No pretreatment. An equal volume of the virus was mixed with 0.8% solution of HPMC2910 and the mixture was instilled into the bladder for 30 minutes.
100 mg/ml Poly-Lysine procedure: No pretreatment. An equal volume of the virus was mixed with 100 mg/ml solution of Poly-Lysine and the mixture was instilled into the bladder for 30 minutes.
0.4% polyvinyl alcohol (PVA) procedure: No pretreatment. An equal volume of the virus was mixed with 0.8% solution of PVA and the mixture was instilled into the bladder for 30 minutes.
n-dodecyl-β-D glucopyranoside procedure: Washed 2 times with 100 μl each. Retained the 3rd wash for 5 min and then gave one additional wash. Performed 3 times PBS wash prior to virus instillation.
0.4% PVP procedure: No pretreatment. An equal volume of the virus was mixed with 0.8% solution of PVP and the mixture was instilled into the bladder for 30 min.
0.1% cholesterol-cyclodextrin reagent procedure: No pretreatment. An equal volume of the virus was mixed with 0.2% solution of Cholesterol-Cyclodextrin and the mixture was instilled into the bladder for 30 minutes.
n-dodecyl-β-D-maltoside procedure: Washed 2 times with 100 μl each. Retained the 3rd wash for 5 min and then gave one additional wash. Performed 3 times PBS wash prior to virus instillation.
Sodium salt of dodecyl benzenesulfonic acid procedure: Washed 2 times with 100 μl each. Retained the 3rd wash for 5 min and then gave one additional wash. Performed 3 times PBS wash prior to virus instillation.
0.1% sodium dodecyl sulphate procedure: Wash 2 times with 100 μl each. Retained the 3rd wash for 5 min and then gave one additional wash. Performed 3 times PBS wash prior to virus instillation.
0.1% Tween 20 procedure: Washed 2 times with 100 μl each. Retained the 3rd wash for 5 min and then gave one additional wash. Performed 3 times PBS wash prior to virus instillation.
0.1% Triton® X-100 procedure: Washed 2 times with 100 μl each. Retained the 3rd wash for 5 min and then gave one additional wash. Perform 3 times PBS wash prior to virus instillation.
0.1% Forlan C-24 procedure: Washed 2 times with 100 μl each. Retained the 3rd wash for 5 min and then gave one additional wash. Performed 3 times PBS wash prior to virus instillation.
0.1% decyl-b-D-maltoside procedure: Washed 2 times with 100 μl each. Retained the 3rd wash for 5 min and then gave one additional wash. Performed 3 times PBS wash prior to virus instillation.
0.1% 6-cyclohexylhexyl-b-D-maltoside procedure: Washed 2 times with 100 μl each. […]

The test system of data set [2] is bladder epithelium. In words: Transduction efficacy of exemplary pretreatment agents (summary Table 7). Format: in vivo, mouse. As to conditions: pretreatment agent.
Data set [3] deals with adenovirus (Ad-LacZ). In words: Study #5: adenovirus stability after incubation with 0.1% SDS or 0.1% DDM (plaque assay). Format: physicochemical. The note with it: 0.1% solution, one hour at 25° C. or 37° C. As to the method:
In this study, adenovirus (Ad-LacZ) preparations (1.0×10^12 vp/ml) were mixed with solutions of SDS or DDM to obtain a mixture of adenovirus and each of these surfactants. […] These samples were incubated at 25° C. or 37° C. for one hour before freezing. They were sent to assay services for plaque assay analysis.

The subject of data set [4] is adenovirus. Briefly: Study #4: degradation of adenovirus by SDS (anion exchange chromatography). The data set is classed as physicochemical. The note with it: 37° C. As to the method:
A series of experiments were preformed on samples of adenovirus incubated at 37° C. for 15-30 minutes in various concentrations of SDS. The resulting material was examined by anion exchange chromatography.

Data set [5] relates to SD rat bladder epithelium. Briefly: Adenovirus dose titration with SDS or DDM pretreatment. Format: in vivo, Sprague Dawley Rat. As to conditions: 0.1% pretreatment. The text has this:
All the animals had >90% in Ad-βgal gene expression in mice bladder. Adenovirus Dose Titration with Different Chemical Agents Pretreatment on SD Rat Bladder Epithelium • Species: Female Sprague Dawley Rat (Taconic Laboratory)—2/group • Study Design: To test the virus infectivity of rat bladder epithelium with different doses of Adenovirus following the pretreatment with SDS or DDM. This study also explored relationship between bladder volume and residual of SDS or DDM for adenovirus infectivity. • Dose/Route:
Rat bladders infected with 4×10^10 vp adenovirus achieved >90% Ad-βgal gene expression levels whereas rat bladders infected with 4×10^9 vp adenovirus had Ad-βgal gene expression levels range from 30% to 50%. […] Efficacy of Dodecyl-β-D-Maltoside as a Pretreatment Agent Prior to Adenovirus Infection of Mice Bladder Urothelium • Species: Female Balb/c Mouse (Taconic Laboratory)—2/group • Study Design: To test DDM from two different suppliers as pretreatment agents to enhance the adenovirus infection of mice bladder urothelium in a large group of animals. • Dose/Route: […]

Data set [6] relates to Ad5-LacZ adenovirus. Briefly: Study #1: compatibility of Ad5-LacZ with ethanol and urine (plaque assay). As to conditions: 40% ethanol, 37° C. one hour. Format: physicochemical. As to the method: In this study, each sample was incubated at 37° C. for one hour before the plaque assay started.
Data set [7] relates to Ad5-LacZ adenovirus. Briefly: Study #2: compatibility of Ad5-LacZ with ethanol (plaque assay). Format: physicochemical. The note with it: higher concentrations of ethanol (i.e., ≧10%). As to the method: For this study, each sample was incubated at 37° C. before the plaque assay started.
Data set [8] concerns bladder epithelium.
Method: A study was conducted to evaluate the effect of ethanol pretreatment on adenovirus-mediated gene transfer and expression in the bladder epithelium of rodents.
Ad-βgal virus was made as a frozen formulation using standard conditions known in the art for freezing and formulation of adenovirus. The vehicle for the virus arm was PBS plus 10% glycerol.
80 female BALB/c mice were used for this study. Female animals are chosen because of the ease of urethral cannulation and vesicle instillation. The mice were approximately 10 to 12 weeks on the day of the start of the experiment.
Animals were anesthetized with isoflurane and a 24 g catheter introduced through the urethra into the bladder.
Residual urine was emptied and the bladder was flushed 3 times with 100-150 μl each of PBS.
Ad-βgal viruses diluted in 0.1 ml of PBS-10% glycerol were administered intravesically into the bladder and retained in the bladder for 45 minutes. A knot was placed around the urethral orifice to prevent leakage of the virus and to prevent the catheter from dislodging.
Treatment was stopped by withdrawing the virus and flushing the bladders 3 times with 100-150 μl of PBS. […]
Animals were killed 48 hours after treatment. […] Transgene expression in the luminal epithelium of the longitudinally opened bladders was empirically determined.
In data set [9] the test system is bladder. In words: Histopathology of bladders after chemical agent pretreatment (pathologists report). The data set is classed as in vivo, mouse (BALB/c). An excerpt: Bladders fixed in whole organ fixative were sectioned and stained with hematoxylin-eosin for histologic examination.
Data set [10] deals with adenovirus. In words: Study #3: compatibility of adenovirus with selected enhancers (plaque assay). Format: physicochemical. As to the method:
For this study, each sample was incubated at 37° C. or 25° C. before the plaque assay started.

The mark [11] stands for this setting: 0.2% pre-treatment for 5 minutes.
The mark [12] stands for this setting: 0.02% pre-treatment for 5 minutes.
[13] abbreviates: 0.05% pre-treatment for 5 minutes.

For `OC[C@H]1O[C@H](O[C@H]2[C@H](O)[C@@H](O)[C@H](OCCCCCCC3CCCCC3)O[C@@H]2CO)[C@H](O)[C@@H](O)[C@@H]1O` [6-cyclohexylhexyl-β-D-maltoside], in data set [1], the “response class (level of transduction)” value is “strongest response” and the “effect on transduction (in words)” value is reported as “increased transduction significantly”. Also, the “Transduction Efficacy” value in data set [2] is on record as “++++ (“++++” means >75% transduction efficacy)”.
`CCCCCCCCCCOS(=O)(=O)[O-].[Na+]` [Sodium decyl sulfate]: the “Transduction Efficacy” value in data set [2] is given as “+ (“+” means 10-25% transduction efficacy)”.
For the compound `CCCCCCCCCCCCOS(=O)(=O)O` [Sodium dodecyl sulfate, sodium dodecyl sulfate], the “effect on adenovirus (in words)” value in data set [3] is “will inactivate the virus”. Moreover, the “response class (level of transduction)” value in [1] was “strongest response”. In addition, in data set [4] (SDS above or equal to 0.025%, 15-30 minutes), the “degradation of the virus (AEX)” value is “will rapidly degrade the virus”. Further, the “particle quality or quantity by AEX method” value in data set [4] (SDS at 0.0125%, 30 minutes of incubation) is reported as “did not reduce the particle quality or quantity”. Moreover, the “removal of GAG layer of bladder epithelium” value in data set [5] is “effective to remove GAG layer of bladder epithelium”. Further, the “Transduction Efficacy” value in data set [2] is listed as “++++ (“++++” means >75% transduction efficacy)”.
For the compound `CCO` [ethanol], the “effect on the virus (in words)” value in [6] is “inactivated most of the virus”. Further, the “effect on adenovirus (in words)” value in [7] was “partial to complete inactivation of adenovirus”. Besides, the transduction in data set [8] (15%, 20%, 25%, and 30 wt. % ethanol pretreatment for 20 minutes, then Ad-βgal 45 min, 48 hours) is given as 10-20%; in [8] (ethanol percentage as high as 30%, reference pre-treatment), 10-20%.
For the compound `CCCCCCCCCCCCO[C@H]1O[C@H](CO)[C@@H](O[C@H]2O[C@H](CO)[C@@H](O)[C@H](O)[C@H]2O)[C@H](O)[C@H]1O` [n-Dodecyl-α-D-Maltoside, n-dodecyl-α-D-maltoside], the “Transduction Efficacy” value in data set [2] was “++++ (“++++” means >75% transduction efficacy)”.
For `CCCCCCCCCCCCCCO[C@@H]1O[C@H](CO)[C@@H](O[C@H]2O[C@H](CO)[C@@H](O)[C@H](O)[C@H]2O)[C@H](O)[C@H]1O` [n-Tetradecyl-β-D-Maltoside], the “Transduction Efficacy” value in [2] is listed as “++ (“++” means 25-50% transduction efficacy)”.
Consider `CCCCCCCCCCCCCOC1OC(CO)C(OC2OC(CO)C(O)C(O)C2O)C(O)C1O` [n-Tridecyl-β-D-Maltoside], for which, in data set [2], the “Transduction Efficacy” value is on record as “+++ (“+++” means 50-75% transduction efficacy)”.
In the case of `CCCCCCCCCCO[C@@H]1O[C@H](CO)[C@@H](O[C@H]2O[C@H](CO)[C@@H](O)[C@H](O)[C@H]2O)[C@H](O)[C@H]1O` [n-decyl-β-D-maltoside], in data set [1], the “response class (level of transduction)” value was “weak responders (had significantly less stained area compared to the ethanol control group)” and the “effect on transduction (in words)” value is recorded as “only a slight effect on transduction”. In addition, the “Transduction Efficacy” value in data set [2] is on record as “+ (“+” means 10-25% transduction efficacy)”.
Regarding `CCCCCCCCCCCCO[C@@H]1O[C@H](CO)[C@@H](O)[C@H](O)[C@H]1O` [n-dodecyl-β-D-glucopyranoside], the “effect on transduction (in words)” value in data set [1] is on record as “little or no enhancement of transduction”.
In the case of `CCCCCCCCCCCCc1ccc(S(=O)(=O)[O-])cc1.[Na+]` [sodium salt of dodecyl-benzenesulfonic acid], in [1], the “response class (level of transduction)” value is “strongest response” and the “effect on transduction (in words)” value is given as “enhanced the transduction of Ad-LacZ in murine bladders”. Also, the “transduction of the urothelium” value in data set [1] (setting [11]) is reported as 20-40%. The “Transduction Efficacy” value in [2] is recorded as “+ (“+” means 10-25% transduction efficacy)”.
As for Triton X-100, in data set [1], the “response class (level of transduction)” value is listed as “weak responders (had significantly less stained area compared to the ethanol control group)” and the “effect on transduction (in words)” value is “found to enhance transduction”. The “Transduction Efficacy” value in [2] is listed as “+ (“+” means 10-25% transduction efficacy)”.
On to “polyethyleneglycoldodecyl ether [polidocanol, reference compound]”, for which the pathologists report result in data set [9] (setting [12]) is “intact mucosa”; in data set [9] (setting [13]), “minimal submucosal edema”; in data set [9] (setting [11]), “erosions and focal ulcer as well as mucosal compromise”. The “response class (level of transduction)” value in data set [1] is listed as “strongest response”. The results for the “transduction of the urothelium” value in data set [1] (setting [12]), in [1] (setting [13]) and in [1] (setting [11]) were 10-20%, 30-40% and 50-80%, respectively. For the same compound, the “Average pfu/mL” value was 1.02E+10 pfu/mL in data set [10] (25° C., 2 hours) and 1.22E+10 pfu/mL in data set [10] (37° C., 1 hour). For the same compound, the Ratio vp/pfu in [10] (25° C., 2 hours) came out at 21 vp/pfu; in [10] (37° C., 1 hour), 17 vp/pfu. Besides, the “compatibility with the adenovirus (in words)” value in data set [10] (under the experimental conditions of Table 5) is given as “compatible with the adenovirus”. Moreover, in [2], the “Transduction Efficacy” value is recorded as “++ (“++” means 25-50% transduction efficacy)”.
As to sucrose monolaurate, in [2], the “Transduction Efficacy” value is “++++ (“++++” means >75% transduction efficacy)”.
